The source of these data is patent publication US20190110478A1, “ANTIBACTERIAL COMPOSITION, ANTIBACTERIAL FILM, ANTIBACTERIAL FILM-ATTACHED SUBSTRATE, METHOD FOR MANUFACTURING ANTIBACTERIAL FILM, AND METHOD FOR MANUFACTURING ANTIBACTERIAL FILM-ATTACHED SUBSTRATE” (FUJIFILM Corporation, priority 2016, published 2019).

This data set in a line: Viscosity characteristics of water-insoluble nitrogen-containing compound (rotary viscometer). The class given is physicochemical. To be noted: 1% by mass solid content in propylene glycol monomethyl ether, 25° C. The protocol:
In a case in which a water-insoluble nitrogen-containing compound is dissolved in propylene glycol monomethyl ether to obtain a solution having a solid content of 1% by mass, the viscosity of the solution at 25° C. as measured using a rotary viscometer is 10 mPa·s or higher.

Regarding `CC(C)(C)c1ccc(O)c(-n2nc3ccccc3n2)c1` [TINUVIN PS], the Viscosity of solution was 2.1 mPa·s.
